Measurements reported in ChEMBL document CHEMBL1156251, “Structure--activity relationships of polymyxin antibiotics” (J Med Chem, 2010).
In brackets after ≈: the same amount, converted by molar mass.

Tests used:
[1] = target: Lipopolysaccharide (LPS); test: Displacement of dansyl-PMB from LPS by isothermal titration calorimetry; details: read-out: IC50
[2] = system: Escherichia coli; test: Antimicrobial activity against Escherichia coli assessed as relative sensitizing activity; type: functional
[3] = system: Escherichia coli; test: Antimicrobial activity against Escherichia coli K-12; type: functional
[4] = system: Escherichia coli; test: Antimicrobial activity against Escherichia coli; type: functional
[5] = system: Pseudomonas aeruginosa; test: Antimicrobial activity against Pseudomonas aeruginosa; type: functional, organism-based
[6] = system: Lipopolysaccharide (LPS); test: Displacement of dansyl-PMB from LPS by fluorometric assay
[7] = system: Escherichia coli; test: Antimicrobial activity against Escherichia coli at 10 ug/mL; type: functional
[8] = system: Salmonella enterica; test: Antimicrobial activity against Salmonella enterica; type: functional

Compound | IC50 [1] | Activity [2] | MIC [4] | MIC [5] | other results
CC(C)C[C@@H]1NC(=O)[C@@H](Cc2ccccc2)NC(=O)[C@H](CCN)NC(=O)[C@@H](NC(=O)[C@H](CCN)NC(=O)[C@@H](N)[C@@H](C)O)CCNC(=O)[C@H]([C@@H](C)O)NC(=O)[C@H](CCCCN)NC(=O)[C@H](CCCCN)NC1=O | 12 µM | 40% | – | – | –
CC(C)C[C@@H]1NC(=O)[C@@H](Cc2ccccc2)NC(=O)[C@H](CCCCN)NC(=O)[C@@H](NC(=O)[C@H](CCCCN)NC(=O)[C@@H](N)[C@@H](C)O)CCNC(=O)[C@@H]([C@H](C)O)NC(=O)[C@H](CCN)NC(=O)[C@H](CCN)NC1=O | 14 µM | 9% | – | – | –
CC(C)C[C@@H]1NC(=O)[C@@H](Cc2ccccc2)NC(=O)[C@H](CCN)NC(=O)[C@@H](NC(=O)[C@H](CCN)NC(=O)[C@@H](N)[C@@H](C)O)CCNC(=O)[C@H]([C@@H](C)O)NC(=O)[C@H](CCN)NC(=O)[C@H](CCN)NC1=O (stereo in doubt; 202) [POLYMYXIN B NONAPEPTIDE] | 8 µM | 5% | – | – | –
CCC(C)CCCCCCC(=O)N[C@H](C(=O)N[C@@H](CCN)C(=O)N[C@H]1CCNC(=O)[C@H]([C@@H](C)O)NC(=O)[C@H](CCN)NC(=O)[C@H](CCN)NC(=O)[C@H](CC(C)C)NC(=O)[C@@H](CC(C)C)NC(=O)[C@H](CCN)NC1=O)[C@@H](C)O (stereo partly drawn) | – | – | – | – | MIC [3]: 25 µg/mL (≈ 22.8 µM)
CCCCCCCCCC(=O)N[C@H](C(=O)N[C@@H](CCN)C(=O)N[C@H]1CCNC(=O)[C@H]([C@@H](C)O)NC(=O)[C@H](CCN)NC(=O)[C@H](CCN)NC(=O)[C@H](CC(C)C)NC(=O)[C@@H](CC(C)C)NC(=O)[C@H](CCN)NC1=O)[C@@H](C)O | – | – | – | – | MIC [3]: 3 µg/mL (≈ 2.77 µM)
CC(C)C[C@@H]1NC(=O)[C@@H](Cc2ccccc2)NC(=O)[C@H](CN)NC(=O)[C@@H](NC(=O)[C@H](CN)NC(=O)[C@@H](N)[C@@H](C)O)CNC(=O)[C@H]([C@@H](C)O)NC(=O)[C@H](CN)NC(=O)[C@H](CN)NC1=O | 30 µM | 11% | – | – | –
CCCCCCCCCCCC(=O)N[C@H](C(=O)N[C@@H](CCN)C(=O)N[C@H]1CCNC(=O)[C@H]([C@@H](C)O)NC(=O)[C@H](CCN)NC(=O)[C@H](CCN)NC(=O)[C@H](CC(C)C)NC(=O)[C@@H](CC(C)C)NC(=O)[C@H](CCN)NC1=O)[C@@H](C)O | – | – | – | – | MIC [3]: 3 µg/mL (≈ 2.7 µM)
CCC(C)CCCCC(=O)N[C@@H](CCNC(=O)CN)C(=O)N[C@H](C(=O)N[C@@H](CCN)C(=O)N[C@H]1CCNC(=O)[C@H]([C@@H](C)O)NC(=O)[C@H](CCN)NC(=O)[C@H](CCN)NC(=O)[C@H](CC(C)C)NC(=O)[C@@H](Cc2ccccc2)NC(=O)[C@H](CCN)NC1=O)[C@@H](C)O (stereo partly drawn) | – | – | 0.028 µg/mL | 0.033 µg/mL | dansyl-PMB displacement concentration [6]: 8 µg/mL
CCCNCC[C@H](NC(=O)CCCCC(C)CC)C(=O)N[C@H](C(=O)N[C@@H](CCN)C(=O)N[C@H]1CCNC(=O)[C@H]([C@@H](C)O)NC(=O)[C@H](CCN)NC(=O)[C@H](CCN)NC(=O)[C@H](CC(C)C)NC(=O)[C@@H](Cc2ccccc2)NC(=O)[C@H](CCN)NC1=O)[C@@H](C)O (stereo partly drawn) | – | – | 0.208 µg/mL | 0.206 µg/mL | dansyl-PMB displacement concentration [6]: 2.4 µg/mL
CCCCCCCCCCC(=O)N[C@H](C(=O)N[C@@H](CCN)C(=O)N[C@H]1CCNC(=O)[C@H]([C@@H](C)O)NC(=O)[C@H](CCN)NC(=O)[C@H](CCN)NC(=O)[C@H](CC(C)C)NC(=O)[C@@H](CC(C)C)NC(=O)[C@H](CCN)NC1=O)[C@@H](C)O | – | – | – | – | MIC [3]: 3 µg/mL (≈ 2.73 µM)
CC(C)C[C@@H]1NC(=O)[C@@H](Cc2ccccc2)NC(=O)[C@H](CCCCN)NC(=O)CN(C(=O)[C@H](CCCCN)NC(=O)[C@@H](N)[C@@H](C)O)CCCCNC(=O)[C@@H]([C@H](C)O)NC(=O)[C@H](CCCCN)NC(=O)[C@H](CCCCN)NC1=O | 35 µM | 4% | – | – | –
CCC(C)CCCCCC(=O)N[C@H](C(=O)N[C@@H](CCN)C(=O)N[C@H]1CCNC(=O)[C@H]([C@@H](C)O)NC(=O)[C@H](CCN)NC(=O)[C@H](CCN)NC(=O)[C@H](CC(C)C)NC(=O)[C@@H](CC(C)C)NC(=O)[C@H](CCN)NC1=O)[C@@H](C)O (stereo partly drawn) | – | – | – | – | MIC [3]: 50 µg/mL (≈ 46.2 µM)
CCNCC[C@H](NC(=O)CCCCC(C)CC)C(=O)N[C@H](C(=O)N[C@@H](CCN)C(=O)N[C@H]1CCNC(=O)[C@H]([C@@H](C)O)NC(=O)[C@H](CCN)NC(=O)[C@H](CCN)NC(=O)[C@H](CC(C)C)NC(=O)[C@@H](Cc2ccccc2)NC(=O)[C@H](CCN)NC1=O)[C@@H](C)O (stereo partly drawn) | – | – | 0.112 µg/mL | 0.146 µg/mL | dansyl-PMB displacement concentration [6]: 2.3 µg/mL
CC(C)C[C@@H]1NC(=O)[C@@H](Cc2ccccc2)NC(=O)[C@H](CC(=N)N)NC(=O)[C@@H](NC(=O)[C@H](CC(=N)N)NC(=O)[C@@H](N)[C@@H](C)O)CCNC(=O)[C@H]([C@@H](C)O)NC(=O)[C@H](CC(=N)N)NC(=O)[C@H](CC(=N)N)NC1=O | 3.8 µM | 25% | – | – | –
CCC(C)CCCCC(=O)N[C@@H](CCNC(=O)C(N)CCCNC(=N)N)C(=O)N[C@H](C(=O)N[C@@H](CCN)C(=O)N[C@H]1CCNC(=O)[C@H]([C@@H](C)O)NC(=O)[C@H](CCN)NC(=O)[C@H](CCN)NC(=O)[C@H](CC(C)C)NC(=O)[C@@H](Cc2ccccc2)NC(=O)[C@H](CCN)NC1=O)[C@@H](C)O (stereo partly drawn) | – | – | 0.453 µg/mL | 0.207 µg/mL | dansyl-PMB displacement concentration [6]: 4.48 µg/mL
CC(C)C[C@@H]1NC(=O)[C@@H](Cc2ccccc2)NC(=O)[C@H](CCCCN)NC(=O)[C@@H](NC(=O)[C@H](CCCCN)NC(=O)[C@@H](N)[C@@H](C)O)CCNC(=O)[C@H]([C@@H](C)O)NC(=O)[C@H](CCCCN)NC(=O)[C@H](CCCCN)NC1=O | 30 µM | 5% | – | – | –
CCNCC[C@@H]1NC(=O)[C@H](CCN)NC(=O)[C@H](CC(C)C)NC(=O)[C@@H](Cc2ccccc2)NC(=O)[C@H](CCN)NC(=O)[C@@H](NC(=O)[C@H](CCN)NC(=O)[C@@H](NC(=O)[C@H](CCN)NC(=O)CCCCC(C)CC)[C@@H](C)O)CCNC(=O)[C@H]([C@@H](C)O)NC1=O (stereo partly drawn) | – | – | 0.492 µg/mL | 0.413 µg/mL | dansyl-PMB displacement concentration [6]: 9.5 µg/mL
CCCNCC[C@@H]1NC(=O)[C@H](CCN)NC(=O)[C@H](CC(C)C)NC(=O)[C@@H](Cc2ccccc2)NC(=O)[C@H](CCN)NC(=O)[C@@H](NC(=O)[C@H](CCN)NC(=O)[C@@H](NC(=O)[C@H](CCN)NC(=O)CCCCC(C)CC)[C@@H](C)O)CCNC(=O)[C@H]([C@@H](C)O)NC1=O (stereo partly drawn) | – | – | 0.995 µg/mL | 0.763 µg/mL | dansyl-PMB displacement concentration [6]: 9.5 µg/mL
CCCCCCCC(=O)N[C@H](C(=O)N[C@@H](CCN)C(=O)N[C@H]1CCNC(=O)[C@H]([C@@H](C)O)NC(=O)[C@H](CCN)NC(=O)[C@H](CCN)NC(=O)[C@H](CC(C)C)NC(=O)[C@H](Cc2ccccc2)NC(=O)[C@H](CCN)NC1=O)[C@@H](C)O | – | – | – | – | GI [7]: 0 square millimeter
CC(C)C[C@@H]1NC(=O)[C@@H](Cc2ccccc2)NC(=O)[C@H](CCCCN)NC(=O)[C@@H](NC(=O)[C@H](CCCCN)NC(=O)[C@@H](N)[C@@H](C)O)CCNC(=O)[C@H]([C@@H](C)O)NC(=O)[C@H](CCN)NC(=O)[C@H](CCN)NC1=O | 15 µM | 4% | – | – | –
CC(C)C[C@@H]1NC(=O)[C@@H](Cc2ccccc2)NC(=O)[C@H](CCCN)NC(=O)CN(C(=O)[C@H](CCCN)NC(=O)[C@@H](N)[C@@H](C)O)CCCNC(=O)[C@@H]([C@H](C)O)NC(=O)[C@H](CCCN)NC(=O)[C@H](CCCN)NC1=O | 25 µM | 2% | – | – | –
CCC(C)CCCCC(=O)N[C@@H](CCNC(=O)C(N)CCCCNC(=O)OCc1ccccc1)C(=O)N[C@H](C(=O)N[C@@H](CCN)C(=O)N[C@H]1CCNC(=O)[C@H]([C@@H](C)O)NC(=O)[C@H](CCN)NC(=O)[C@H](CCN)NC(=O)[C@H](CC(C)C)NC(=O)[C@@H](Cc2ccccc2)NC(=O)[C@H](CCN)NC1=O)[C@@H](C)O (stereo partly drawn) | – | – | 0.206 µg/mL | 0.175 µg/mL | dansyl-PMB displacement concentration [6]: 1.12 µg/mL
CCC(C)CCCCC(=O)N[C@@H](CCNC(C)=O)C(=O)N[C@H](C(=O)N[C@@H](CCN)C(=O)N[C@H]1CCNC(=O)[C@H]([C@@H](C)O)NC(=O)[C@H](CCN)NC(=O)[C@H](CCN)NC(=O)[C@H](CC(C)C)NC(=O)[C@@H](Cc2ccccc2)NC(=O)[C@H](CCN)NC1=O)[C@@H](C)O (stereo partly drawn) | – | – | 1.3 µg/mL | 2.8 µg/mL | dansyl-PMB displacement concentration [6]: 2.8 µg/mL
CC(C)C[C@@H]1NC(=O)[C@@H](Cc2ccccc2)NC(=O)[C@H](CCN)NC(=O)[C@H](CCN)NC(=O)[C@H](NC(=O)[C@@H](N)[C@@H](C)O)CCNC(=O)[C@H]([C@@H](C)O)NC(=O)[C@H](CCN)NC(=O)[C@H](CCN)NC1=O | 8 µM | 7% | – | – | –
CCCCCCCCCCCCCC(=O)N[C@H](C(=O)N[C@@H](CCN)C(=O)N[C@H]1CCNC(=O)[C@H]([C@@H](C)O)NC(=O)[C@H](CCN)NC(=O)[C@H](CCN)NC(=O)[C@H](CC(C)C)NC(=O)[C@@H](CC(C)C)NC(=O)[C@H](CCN)NC1=O)[C@@H](C)O | – | – | 4 µM | 4 µM | MIC [8]: 2 µM (≈ 2.28 µg/mL); MIC [3]: 12 µg/mL (≈ 10.5 µM)
CCCCCCCCC(=O)N[C@H](C(=O)N[C@@H](CCN)C(=O)N[C@H]1CCNC(=O)[C@H]([C@@H](C)O)NC(=O)[C@H](CCN)NC(=O)[C@H](CCN)NC(=O)[C@H](CC(C)C)NC(=O)[C@@H](CC(C)C)NC(=O)[C@H](CCN)NC1=O)[C@@H](C)O | – | – | – | – | MIC [3]: 12 µg/mL (≈ 11.2 µM)
CCCCCCCC(=O)N[C@H](C(=O)N[C@@H](CCC(N)=O)C(=O)N[C@H]1CCNC(=O)[C@H]([C@@H](C)O)NC(=O)[C@H](CCN)NC(=O)[C@H](CCN)NC(=O)[C@H](CC(C)C)NC(=O)[C@@H](Cc2ccccc2)NC(=O)[C@H](CCN)NC1=O)[C@@H](C)O | – | – | – | – | GI [7]: 10 square millimeter
CCCCCCCC(=O)N[C@H](C(=O)N[C@H](CO)C(=O)N[C@H]1CCNC(=O)[C@H]([C@@H](C)O)NC(=O)[C@H](CCN)NC(=O)[C@H](CCN)NC(=O)[C@H]([C@H](C)O)NC(=O)[C@@H](Cc2ccccc2)NC(=O)[C@H](CCN)NC1=O)[C@@H](C)O | – | – | – | – | GI [7]: 172 square millimeter
CCCCCCC(=O)N[C@H](C(=O)N[C@H](CO)C(=O)N[C@H]1CCNC(=O)[C@H]([C@@H](C)O)NC(=O)[C@H](CCN)NC(=O)[C@H](CCN)NC(=O)[C@H]([C@H](C)O)NC(=O)[C@@H](Cc2ccccc2)NC(=O)[C@H](CCN)NC1=O)[C@@H](C)O | – | – | – | – | GI [7]: 200 square millimeter
